# Target: MCH receptor (Homo sapiens, UniProt Q99705)
# Assay: High throughput functional screening FLIPR/FDSS6000: inhibition of MCH-evoked intracellular Ca2+ changes
# Format: cell-based
# Details: class by percent of control at 10^−7 M or by IC50; read-out: class
# Procedure, shortened: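 Cells expressing a non-endogenous, constitutively active MCH receptor were loaded with 4 μM Fluo4-AM (with probenecid) for 1 hr at 37° C. Test compound was preincubated 3 min at 37° C before 50 nM MCH was added. The [Ca2+]i transient was read at Ex 488/Em 530 nm for 290 s.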
row,SMILES,IC50 [µM]
1,"CN(C)c1nc(N[C@H]2CC[C@@H](CNC(=O)Nc3ccccc3Cl)CC2)nc2ccccc12 [Example 1021, N-(2-chlorophenyl)-N′-[(cis-4-{[4-(dimethylamino)quinazolin-2-yl]amino}cyclohexyl)methyl]urea]",0.05 to 0.2
2,"CN(C)c1nc(N[C@H]2CC[C@@H](CNC(=O)Nc3cccc(Cl)c3)CC2)nc2ccccc12 [Example 1022, N-(3-chlorophenyl)-N′-[(cis-4-{[4-(dimethylamino)quinazolin-2-yl]amino}cyclohexyl)methyl]urea]",0.05 to 0.2
3,"CN(C)c1nc(N[C@H]2CC[C@@H](CNC(=O)Nc3ccc(Cl)cc3)CC2)nc2ccccc12 [Example 1023, N-(4-chlorophenyl)-N′-[(cis-4-{[4-(dimethylamino)quinazolin-2-yl]amino}cyclohexyl)methyl]urea]",0.05 to 0.2
4,"CN(C)c1nc(N[C@H]2CC[C@@H](CNC(=O)Nc3ccc(Cl)c(Cl)c3)CC2)nc2ccccc12 [Example 1026, N-(3,4-dichlorophenyl)-N′-[(cis-4-{[4-(dimethylamino)quinazolin-2-yl]amino}cyclohexyl)methyl]urea]",0.05 to 0.2
5,"CN(C)c1nc(N[C@H]2CC[C@@H](CNC(=O)Nc3cc(Cl)ccc3Cl)CC2)nc2ccccc12 [Example 1027, N-(2,5-dichlorophenyl)-N′-[(cis-4-{[4-(dimethylamino)quinazolin-2-yl]amino}cyclohexyl)methyl]urea]",0.05 to 0.2
6,"CN(C)c1nc(N[C@H]2CC[C@@H](CNC(=O)Nc3ccc(Cl)cc3Cl)CC2)nc2ccccc12 [Example 1029, N-(2,4-dichlorophenyl)-N′-[(cis-4-{[4-(dimethylamino)quinazolin-2-yl]amino}cyclohexyl)methyl]urea]",0.05 to 0.2
7,"CN(C)c1nc(N[C@H]2CC[C@@H](NC(=O)c3cccnc3Oc3ccc(Cl)c(F)c3)CC2)nc2ccccc12 [Example 1042, 2-(4-chloro-3-fluorophenoxy)-N-(cis-4-{[4-(dimethylamino)quinazolin-2-yl]amino}cyclohexyl)nicotinamide]",< 0.05
8,"CN(C)c1nc(N[C@H]2CC[C@@H](NC(=O)c3cccnc3Oc3ccc(F)c(Cl)c3)CC2)nc2ccccc12 [Example 1043, 2-(3-chloro-4-fluorophenoxy)-N-(cis-4-{[4-(dimethylamino)quinazolin-2-yl]amino}cyclohexyl)nicotinamide]",< 0.05
9,"COc1ccc(CN[C@@H]2CC[C@H](Nc3nc(N(C)C)c4ccccc4n3)C2)c(OC)c1 [Example 1044, N2-{(1S,3R)-3-[(2,4-dimethoxybenzyl)amino]cyclopentyl}-N4,N4-dimethylquinazoline-2,4-diamine]",> 0.2
10,"CN(C)c1nc(N[C@H]2CC[C@@H](NCc3ccc(OC(F)(F)F)cc3)C2)nc2ccccc12 [Example 1047, N4,N4-dimethyl-N2-((1S,3R)-3-{[4-(trifluoromethoxy)benzyl]-amino}cyclopentyl)quinazoline-2,4-diamine]",> 0.2
11,"CN(C)c1nc(N[C@H]2CC[C@@H](NCc3ccc(Br)cc3OC(F)(F)F)C2)nc2ccccc12 [Example 1048, N2-((1S,3R)-3-{[4-bromo-2-(trifluoromethoxy)benzyl]-amino}cyclopentyl)-N4,N4-dimethylquinazoline-2,4-diamine]",> 0.2
12,"CN(C)c1nc(N[C@H]2CC[C@@H](NCc3ccc(F)c(F)c3)C2)nc2ccccc12 [Example 1049, N2-{(1S,3R)-3-[(3,4-difluorobenzyl)amino]cyclopentyl}-N4,N4-dimethylquinazoline-2,4-diamine]",> 0.2
13,"CN(C)c1nc(N[C@H]2CC[C@@H](NC(=O)c3ccc(Oc4ccccc4F)nc3)CC2)nc2ccccc12 [Example 1050, N-(cis-4-{[4-(dimethylamino)quinazolin-2-yl]amino}cyclohexyl)-6-(2-fluorophenoxy)nicotinamide]",< 0.05
14,"CN(C)c1nc(N[C@H]2CC[C@@H](NC(=O)c3ccc(Oc4ccccc4Cl)nc3)CC2)nc2ccccc12 [Example 1051, 6-(2-chlorophenoxy)-N-(cis-4-{[4-(dimethylamino)quinazolin-2-yl]amino}cyclohexyl)nicotinamide]",> 0.2
15,"CN(C)c1nc(N[C@H]2CC[C@@H](NC(=O)c3ccc(Oc4ccccc4Br)nc3)CC2)nc2ccccc12 [Example 1052, 6-(2-bromophenoxy)-N-(cis-4-{[4-(dimethylamino)quinazolin-2-yl]amino}cyclohexyl)nicotinamide]",> 0.2
16,"COc1ccccc1Oc1ccc(C(=O)N[C@H]2CC[C@@H](Nc3nc(N(C)C)c4ccccc4n3)CC2)cn1 [Example 1054, N-(cis-4-{[4-(dimethylamino)quinazolin-2-yl]amino}cyclohexyl)-6-(2-methoxyphenoxy)nicotinamide]",< 0.05
17,"COc1cccc(Oc2ccc(C(=O)N[C@H]3CC[C@@H](Nc4nc(N(C)C)c5ccccc5n4)CC3)cn2)c1 [Example 1056, N-(cis-4-{[4-(dimethylamino)quinazolin-2-yl]amino}cyclohexyl)-6-(3-methoxyphenoxy)nicotinamide]",< 0.05
18,"CN(C)c1nc(N[C@H]2CC[C@@H](NC(=O)c3ccc(Oc4cccc(C(F)(F)F)c4)nc3)CC2)nc2ccccc12 [Example 1057, N-(cis-4-{[4-(dimethylamino)quinazolin-2-yl]amino}cyclohexyl)-6-[3-(trifluoromethyl)phenoxy]nicotinamide]",< 0.05

# Second part, the molecule after the results:
row,IC50 [µM],SMILES
1,< 0.05,"CN(C)c1nc(N[C@H]2CC[C@@H](CNC(=O)Nc3cc(Cl)cc(Cl)c3)CC2)nc2ccccc12 [Example 1024, N-(3,5-dichlorophenyl)-N′-[(cis-4-{[4-(dimethylamino)quinazolin-2-yl]amino}cyclohexyl)methyl]urea]"
2,< 0.05,"CN(C)c1nc(N[C@H]2CC[C@@H](CNC(=O)Nc3c(Cl)cccc3Cl)CC2)nc2ccccc12 [Example 1025, N-(2,6-dichlorophenyl)-N′-[(cis-4-{[4-(dimethylamino)quinazolin-2-yl]amino}cyclohexyl)methyl]urea]"
3,< 0.05,"CN(C)c1nc(N[C@H]2CC[C@@H](CNC(=O)Nc3cccc(Cl)c3Cl)CC2)nc2ccccc12 [Example 1028, N-(2,3-dichlorophenyl)-N′-[(cis-4-{[4-(dimethylamino)quinazolin-2-yl]amino}cyclohexyl)methyl]urea]"
4,< 0.05,"CN(C)c1nc(N[C@H]2CC[C@@H](NC(=O)c3cccnc3Oc3ccccc3F)CC2)nc2ccccc12 [Example 1030, N-(cis-4-{[4-(dimethylamino)quinazolin-2-yl]amino}cyclohexyl)-2-(2-fluorophenoxy)nicotinamide]"
5,< 0.05,"CN(C)c1nc(N[C@H]2CC[C@@H](NC(=O)c3cccnc3Oc3ccccc3Cl)CC2)nc2ccccc12 [Example 1031, 2-(2-chlorophenoxy)-N-(cis-4-{[4-(dimethylamino)quinazolin-2-yl]amino}cyclohexyl)nicotinamide]"
6,< 0.05,"CN(C)c1nc(N[C@H]2CC[C@@H](NC(=O)c3cccnc3Oc3ccccc3Br)CC2)nc2ccccc12 [Example 1032, 2-(2-bromophenoxy)-N-(cis-4-{[4-(dimethylamino)quinazolin-2-yl]amino}cyclohexyl)nicotinamide]"
7,< 0.05,"CN(C)c1nc(N[C@H]2CC[C@@H](NC(=O)c3cccnc3Oc3ccccc3OC(F)(F)F)CC2)nc2ccccc12 [Example 1033, N-(cis-4-{[4-(dimethylamino)quinazolin-2-yl]amino}cyclohexyl)-2-[2-(trifluoromethoxy)phenoxy]nicotinamide]"
8,< 0.05,"CN(C)c1nc(N[C@H]2CC[C@@H](NC(=O)c3cccnc3Oc3cccc(F)c3)CC2)nc2ccccc12 [Example 1034, N-(cis-4-{[4-(dimethylamino)quinazolin-2-yl]amino}cyclohexyl)-2-(3-fluorophenoxy)nicotinamide]"
9,< 0.05,"COc1cccc(Oc2ncccc2C(=O)N[C@H]2CC[C@@H](Nc3nc(N(C)C)c4ccccc4n3)CC2)c1 [Example 1035, N-(cis-4-{[4-(dimethylamino)quinazolin-2-yl]amino}cyclohexyl)-2-(3-methoxyphenoxy)nicotinamide]"
10,< 0.05,"CN(C)c1nc(N[C@H]2CC[C@@H](NC(=O)c3cccnc3Oc3cccc(OC(F)(F)F)c3)CC2)nc2ccccc12 [Example 1036, N-(cis-4-{[4-(dimethylamino)quinazolin-2-yl]amino}cyclohexyl)-2-[3-(trifluoromethoxy)phenoxy]nicotinamide]"
11,< 0.05,"CN(C)c1nc(N[C@H]2CC[C@@H](NC(=O)c3cccnc3Oc3ccc(OC(F)(F)F)cc3)CC2)nc2ccccc12 [Example 1037, N-(cis-4-{[4-(dimethylamino)quinazolin-2-yl]amino}cyclohexyl)-2-[4-(trifluoromethoxy)phenoxy]nicotinamide]"
12,< 0.05,"CN(C)c1nc(N[C@H]2CC[C@@H](NC(=O)c3cccnc3Oc3ccc(F)c(F)c3)CC2)nc2ccccc12 [Example 1038, 2-(3,4-difluorophenoxy)-N-(cis-4-{[4-(dimethylamino)quinazolin-2-yl]amino}cyclohexyl)nicotinamide]"
13,< 0.05,"COc1cc(OC)cc(Oc2ncccc2C(=O)N[C@H]2CC[C@@H](Nc3nc(N(C)C)c4ccccc4n3)CC2)c1 [Example 1039, 2-(3,5-dimethoxyphenoxy)-N-(cis-4-{[4-(dimethylamino)quinazolin-2-yl]amino}cyclohexyl)nicotinamide]"
14,< 0.05,"COc1cccc(Oc2ncccc2C(=O)N[C@H]2CC[C@@H](Nc3nc(N(C)C)c4ccccc4n3)CC2)c1OC [Example 1040, 2-(2,3-dimethoxyphenoxy)-N-(cis-4-{[4-(dimethylamino)quinazolin-2-yl]-amino}cyclohexyl)nicotinamide]"
15,< 0.05,"COc1cc(Oc2ncccc2C(=O)N[C@H]2CC[C@@H](Nc3nc(N(C)C)c4ccccc4n3)CC2)cc(OC)c1OC [Example 1041, N-(cis-4-{[4-(dimethylamino)quinazolin-2-yl]amino}cyclohexyl)-2-(3,4,5-trimethoxyphenoxy)nicotinamide]"

# Reference: patent US20070010671A1, “Novel quinazoline derivatives and methods of treatment related to the use thereof” (priority 2003, published 2007)
